pEC50: −log10 of the molar value. “And” between values parts separate entries of the source, which are not always exact repeats. Identical values can stand only once.
Tested on: LXRα and/or LXRβ
Assay: LXR/LXRE co-transfection assay (luciferase reporter, CV-1 cells)
Assay type: cell-based, human
Conditions: IC50 or EC50 for LXR (LXRα and/or LXRβ, not distinguished), tested as described in Example 109, CV-1 cells
How it was run: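 Transient co-transfection of CV-1 cells with full-length human LXRα or LXRβ plus RXRα expression plasmids and an LXREx1-Tk-luciferase reporter; compounds (10 μM screen, ≤1% DMSO) incubated 20 h at 37 °C. Luminescence read after lysis; EC50/IC50 from 8-point half-log curves, efficacy relative to a high control or DMSO.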

For `CS(=O)(=O)c1cccc(-c2ccc(-c3cc(C(F)(F)F)nn3-c3ccccc3Cl)cc2C(=O)O)c1` [Example 1139, 4-[1-(2-chlorophenyl)-3-(trifluoromethyl)-1H-pyrazol-5-yl]-3′-(methylsulfonyl)biphenyl-2-carboxylic acid], the pEC50 was 5.00 to 6.00 and > 6.00.

`CS(=O)(=O)c1cccc(-c2ccc(-c3cc(C(=O)N4CCC(C(=O)O)CC4)nn3-c3ccccc3Cl)s2)c1` [Example 592, 1-(1-(2-chlorophenyl)-5-(5-(3-(methylsulfonyl)phenyl)thiophen-2-yl)-1H-pyrazole-3-carbonyl)piperidine-4-carboxylic acid] and `CC(CO)NC(=O)c1cc(-c2ccc(-c3cccc(S(C)(=O)=O)c3)s2)n(-c2ccccc2Cl)n1` (centres unmarked) [Example 1270, 1-(2-chlorophenyl)-N-(2-hydroxy-1-methylethyl)-5-{5-[3-(methylsulfonyl)phenyl]-2-thienyl}-1H-pyrazole-3-carboxamide] fall in the same range of pEC50: 5.00 to 6.00 for the first, 5.00 to 6.00 for the second.

`CC(C)S(=O)(=O)c1cccc(-c2ccc(-c3cc(C(F)(F)F)nn3-c3ccccc3Cl)cc2)c1` [Example 1167, 1-(2-chlorophenyl)-5-{3′-[(1-methylethyl)sulfonyl]biphenyl-4-yl}-3-(trifluoromethyl)-1H-pyrazole] and `CC(C)(O)c1cc(-c2ccc(-c3cccc(S(C)(=O)=O)c3)cc2)n(-c2ccccc2Cl)n1` [Example 1219, 2-{1-(2-chlorophenyl)-5-[3′-(methylsulfonyl)biphenyl-4-yl]-1H-pyrazole-3-yl}propan-2-ol] cannot be ordered by pEC50: greater than 6.00 for the first, greater than 6.00 for the second.

`CC(C)(O)c1cc(-c2ccccc2Cl)n(-c2ccc(-c3cccc(S(C)(=O)=O)c3)cc2Cl)n1` [Example 114, 2-(1-(3-chloro-3′-(methylsulfonyl)biphenyl-4-yl)-5-(2-chlorophenyl)-1H-pyrazol-3-yl)propan-2-ol] and `Cc1cc(-c2cccc(S(C)(=O)=O)c2)ccc1-n1nc(C(C)(C)O)cc1-c1ccccc1Cl` [Example 113, 2-(5-(2-chlorophenyl)-1-(3-methyl-3′-(methylsulfonyl)biphenyl-4-)-1H-pyrazol-3-yl)propan-2-ol] cannot be ordered by pEC50: greater than 6.00 for the first, greater than 6.00 for the second.

`CC(C)(O)c1cccc(-c2ccc(-c3cc(C(F)(F)F)nn3-c3ncccc3C(F)(F)F)s2)c1` [Example 1252, 2-[3-(5-{3-(trifluoromethyl)-1-[3-(trifluoromethyl)pyridin-2-yl]-1H-pyrazol-5-yl}-2-thienyl)phenyl]propan-2-ol] and `CC(C)(C(=O)O)c1cccc(-c2ccc(-c3cc(C(F)(F)F)nn3-c3ncccc3C(F)(F)F)s2)c1` [Example 1165, 2-methyl-2-[3-(5-{3-(trifluoromethyl)-1-[3-(trifluoromethyl)pyridin-2-yl]-1H-pyrazol-5-yl}-2-thienyl)phenyl]propanoic acid] fall in the same range of pEC50: 5.00 to 6.00 for the first, 5.00 to 6.00 for the second.

`CS(=O)(=O)c1cccc(-c2ccc(-c3cc(C(=S)NCC(F)(F)F)nn3-c3ccccc3Cl)s2)c1` [Example 1277, 1-(2-chlorophenyl)-5-{5-[3-(methylsulfonyl)phenyl]-2-thienyl}-N-(2,2,2-trifluoromethyl)-1H-pyrazole-3-carbothioamide] and `CS(=O)(=O)c1cccc(-c2ccc(-c3cc(C(=O)NCC(F)(F)F)nn3-c3ccccc3Cl)s2)c1` [Example 1161, 1-(2-chlorophenyl)-5-{5-[3-(methylsulfonyl)phenyl]-2-thienyl}-N-(2,2,2-trifluoroethyl)-1H-pyrazole-3-carboxamide] cannot be ordered by pEC50: greater than 6.00 for the first, greater than 6.00 for the second.

`CC(C)(O)c1cc(-c2c(Cl)cccc2Cl)n(-c2ccc(-c3cccc(S(C)(=O)=O)c3)cc2Cl)n1` [Example 124, 2-(1-(3-chloro-3′-(methylsulfonyl)nbiphenyl-4-yl)-5-(2,6-dichlorophenyl)-1H-pyrazol-3-yl)propan-2-ol] and `Cc1cc(-c2cccc(S(C)(=O)=O)c2)ccc1-n1nc(C(C)(C)O)c(Cl)c1-c1c(F)cccc1Cl` [Example 149, 2-(4-chloro-5-(2-chloro-6-fluorophenyl)-1-(3-methyl-3′-(methylsulfonyl)biphenyl-4-yl)-1H-pyrazol-3-yl)propan-2-ol] cannot be ordered by pEC50: greater than 6.00 for the first, greater than 6.00 for the second.

`Cc1cc(-c2cccc(S(C)(=O)=O)c2)ccc1-n1nc(C(C)(C)O)cc1-c1ccccc1C(F)(F)F` [Example 139, 2-(1-(3-methyl-3′-(methylsulfonyl)biphenyl-4-yl)-5-(2-(trifluoromethyl)phenyl)-1H-pyrazol-3-yl)propan-2-ol] and `CC(C)(O)c1cc(-c2ccc(-c3cccc(S(C)(=O)=O)c3)s2)n(-c2ccccc2OC(F)(F)F)n1` [Example 1327, 2-(5-{5-[3-(methylsulfonyl)phenyl]-2-thienyl}-1-(2-[(trifluoromethyl)oxy]phenyl}-1H-pyrazol-3-yl)propan-2-ol] cannot be ordered by pEC50: greater than 6.00 for the first, greater than 6.00 for the second.

`CS(=O)(=O)c1cccc(-c2ccc(-c3cc(C(F)(F)F)nn3-c3c(Cl)cccc3Cl)s2)c1` [Example 1227, 1-(2,6-dichlorophenyl)-5-{5-[3-(methylsulfonyl)phenyl]-2-thienyl}-3-(trifluoromethyl)-1H-pyrazole] and `COC(=O)c1cccc(-n2nc(C(F)(F)F)cc2-c2ccc(-c3cccc(S(C)(=O)=O)c3)s2)c1` [Example 1186, methyl 3-[5-{5-[3-(methylsulfonyl)phenyl]-2-thienyl}-3-(trifluoromethyl)-1H-pyrazol-1-yl]benzoate] cannot be ordered by pEC50: greater than 6.00 for the first, greater than 6.00 for the second.

Going from `Cc1cc(NCCN2CCCCC2)ccc1-c1cc(C(C)(C)O)nn1-c1c(Cl)cccc1Cl` [Example 1405, 2-(1-(2,6-dichlorophenyl)-5-(2-methyl-4-(2-(piperidin-1-yl)ethylamino)phenyl)-1H-pyrazol-3-yl)propan-2-ol] to `Cc1cc(-c2cccc(S(C)(=O)=O)c2)ccc1-c1cc(C(=O)N2CCCC2)nn1-c1c(Cl)cccc1Cl` [Example 148, (1-(2,6-dichlorophenyl)-5-(3-methyl-3′-(methylsulfonyl)biphenyl-4-yl)-1H-pyrazol-3-yl)(pyrrolidin-1-yl)methanone], the pEC50 rises from less than 5.00 to greater than 6.00. The second is the more potent here.

First: Cc1cc(-n2nc(C(C)(C)O)c(Cl)c2-c2c(Cl)cccc2Cl)ccc1-c1cccc(S(C)(=O)=O)c1 [Example 1419, 2-(4-chloro-5-(2,6-dichlorophenyl)-1-(2-methyl-3′-(methylsulfonyl)biphenyl-4-yl)-1H-pyrazol-3-yl)propan-2-ol]
Second: Cc1cc(-c2cccc(S(C)(=O)=O)c2)ccc1-c1c(Cl)c(C(C)(C)O)nn1-c1cnccc1C(F)(F)F [Example 107, 2-(4-chloro-5-(3-methyl-3′-(methylsulfonyl)biphenyl-4-yl)-1-(4-(trifluoromethyl)pyridin-3-yl)-1H-pyrazol-3-yl)propan-2-ol]
The pEC50 of the first is lower: 5.00 to 6.00 for the first, greater than 6.00 for the second.

Compared with `CS(=O)(=O)c1cccc(-c2ccc(-c3cc(C(F)(F)F)nn3-c3ccccc3Cl)cc2CN2CCOCC2)c1` [Example 1148], `CC(=O)c1cc(-c2cc(C(F)(F)F)nn2-c2ccccc2Cl)ccc1-c1cccc(S(C)(=O)=O)c1` [Example 1206, 1-{4-[1-(2-chlorophenyl)-3-(trifluoromethyl)-1H-pyrazol-5-yl]-3′-(methylsulfonyl)biphenyl-2-yl}ethanone] is higher in pEC50: 5.00 to 6.00 for the first, greater than 6.00 for the second. The second is the more potent here.

`CN(Cc1ccsc1)Cc1cc(-c2ccc(-c3cccc(S(C)(=O)=O)c3)s2)n(-c2ccccc2Cl)n1` [Example 544, 1-[1-(2-chlorophenyl)-5-{5-[3-(methylsulfonyl)phenyl]-2-thienyl}-1H-pyrazol-3-yl]-N-methyl-N-(3-thienylmethyl)methanamine] and `CN(CC#N)Cc1cc(-c2ccc(-c3cccc(S(C)(=O)=O)c3)s2)n(-c2ccccc2Cl)n1` [Example 558, [{[1-(2-chlorophenyl)-5-{5-[3-(methylsulfonyl)phenyl]-2-thienyl}-1H-pyrazol-3-yl]methyl}(methyl)amino]acetonitrile] fall in the same range of pEC50: 5.00 to 6.00 for the first, 5.00 to 6.00 for the second.

First: Cc1ccc(Cl)c(-n2nc(C(C)(C)O)cc2-c2ccc(-c3cccc(S(C)(=O)=O)c3)s2)c1Cl [Example 1325, 2-[1-(2,6-dichloro-3-methylphenyl)-5-{5-[3-(methylsulfonyl)phenyl]-2-thienyl}-1H-pyrazol-3-yl]propan-2-ol]
Second: CC(C)(O)c1cc(-c2ccc(-c3cccc(S(C)(=O)=O)c3)s2)n(-c2ccc(Cl)cc2)n1 [Example 1257, 2-[1-(4-chlorophenyl)-5-{5-[3-(methylsulfonyl)phenyl]-2-thienyl}-1H-pyrazol-3-yl]propan-2-ol]
The pEC50 of the first is higher: greater than 6.00 for the first, 5.00 to 6.00 for the second. The first is the more potent here.

Compared with `CS(=O)(=O)c1cccc(-c2ccc(-c3cc(C(F)(F)F)nn3-c3ccccc3Oc3ccccc3)s2)c1` [Example 1215, 5-{5-[3-(methylsulfonyl)phenyl]-2-thienyl}-1-[2-(phenyloxy)phenyl]-3-(trifluoromethyl)-1H-pyrazole], `Cc1n[nH]c(C)c1CN(C)Cc1cc(-c2ccc(-c3cccc(S(C)(=O)=O)c3)s2)n(-c2ccccc2Cl)n1` [Example 568, 1-[1-(2-chlorophenyl)-5-{5-[3-(methylsulfonyl)phenyl]-2-thienyl}-1H-pyrazol-3-yl]-N-[(3,5-dimethyl-1H-pyrazol-4-yl)methyl}-N-methylmethanamine] is lower in pEC50: greater than 6.00 for the first, 5.00 to 6.00 for the second. The first is the more potent here.

`COC(=O)c1cc(-c2ccc(-c3cccc(S(C)(=O)=O)c3)cn2)n(-c2ccccc2Cl)n1` [Example 118, methyl 1-(2-chlorophenyl)-5-(5-(3-(methylsulfonyl)phenyl)pyridin-2-yl)-1H-pyrazole-3-carboxylate] and `CCN(CC)CCN(CC)C(=O)c1cc(-c2ccc(-c3cccc(S(C)(=O)=O)c3)s2)n(-c2ccccc2Cl)n1` [Example 587, 1-(2-chlorophenyl)-N-[2-(diethylamino)ethyl]-N-ethyl-5-{5-[3-(methylsulfonyl)phenyl]-2-thienyl}-1H-pyrazole-3-carboxamide] cannot be ordered by pEC50: greater than 6.00 for the first, greater than 6.00 for the second.

`CS(=O)(=O)c1cccc(-c2ccc(-c3c(Cl)c(C(=O)NCC(F)(F)F)nn3-c3cccnc3C(F)(F)F)c(Cl)c2)c1` [Example 1403, 4-chloro-5-(3-chloro-3′-(methylsulfonyl)biphenyl-4-yl)-N-(2,2,2-trifluoromethyl)-1-(2-(trifluoromethyl)pyridin-3-yl)-1H-pyrazole-3-carboxamide] gave a pEC50 greater than 6.00.

Source: patent US8703805B2 (Exelixis Patent Company LLC, priority 2005, dated 2014)
